Test system: rabbits
Experiment: Tissue proton T1 and T2 relaxation times 15 min after intravenous administration (dose-response)
Format: in vivo
Conditions: for T1 relaxation time / T2 relaxation time: 10 mHz RADX; for effect on hepatic and biliary T1 relaxation times: intravenous administration
Experimental: All experiments employing the complex dihydrogen bis(N-[N′-(2,6-dimethylphenyl)carbamoylmethyl]iminodiaceto)manganese (II) trihydrate were conducted following intravenous administration to rabbits. A 10 mM solution of the complex was used in these studies. Rabbits were anesthetized with ketamine/xylazine prior to treatment. The results given were obtained with a 10 mHz RADX proton spin analyzer.
Dose-response experiments were conducted on rabbits following intravenous injection of 0.01-0.10 mmol of the complex/kg. […]

[1] = 0.01-0.10 mmol/kg i.v., rabbits, 15 min
[2] = Bladder, 15 min after 0.01 mmol/kg i.v., rabbits
[3] = Bladder, 15 min after 0.03 mmol/kg i.v., rabbits
[4] = Bladder, 15 min after 0.08 mmol/kg i.v., rabbits
[5] = Bladder, 15 min after 0.10 mmol/kg i.v., 1 rabbit
[6] = Blood, 5 min, 0.01 mmol/kg i.v., rabbits
[7] = Blood, 5 min, 0.03 mmol/kg i.v., rabbits
[8] = Blood, 5 min, 0.08 mmol/kg i.v., rabbits
[9] = Blood, 5 min, 0.10 mmol/kg i.v., 1 rabbit
[10] = Blood, 10 min, 0.01 mmol/kg i.v., rabbits
[11] = Blood, 10 min, 0.03 mmol/kg i.v., rabbits
[12] = Blood, 10 min, 0.08 mmol/kg i.v., rabbits
[13] = Blood, 10 min, 0.10 mmol/kg i.v., 1 rabbit
[14] = Blood, 15 min, 0.01 mmol/kg i.v., rabbits
[15] = Blood, 15 min, 0.03 mmol/kg i.v., rabbits
[16] = Blood, 15 min, 0.08 mmol/kg i.v., rabbits
[17] = Fat, 15 min after 0.01 mmol/kg i.v., rabbits
[18] = Fat, 15 min after 0.03 mmol/kg i.v., rabbits
[19] = Fat, 15 min after 0.08 mmol/kg i.v., rabbits
[20] = Fat, 15 min after 0.10 mmol/kg i.v., 1 rabbit
[21] = Heart, 15 min after 0.01 mmol/kg i.v., rabbits
[22] = Heart, 15 min after 0.03 mmol/kg i.v., rabbits
[23] = Heart, 15 min after 0.08 mmol/kg i.v., rabbits
[24] = Heart, 15 min after 0.10 mmol/kg i.v., 1 rabbit
[25] = Large Intestine, 15 min after 0.01 mmol/kg i.v., rabbits
[26] = Large Intestine, 15 min after 0.03 mmol/kg i.v., rabbits
[27] = Large Intestine, 15 min after 0.08 mmol/kg i.v., rabbits
[28] = Large Intestine, 15 min after 0.10 mmol/kg i.v., 1 rabbit
[29] = Large Intestine, rabbits, 15 min
[30] = Liver, 15 min after 0.01 mmol/kg i.v., rabbits
[31] = Liver, 15 min after 0.03 mmol/kg i.v., rabbits
[32] = Liver, 15 min after 0.08 mmol/kg i.v., rabbits
[33] = Liver, 15 min after 0.10 mmol/kg i.v., 1 rabbit
[34] = Lung, 15 min after 0.01 mmol/kg i.v., rabbits
[35] = Lung, 15 min after 0.03 mmol/kg i.v., rabbits
[36] = Lung, 15 min after 0.08 mmol/kg i.v., rabbits
[37] = Lung, 15 min after 0.10 mmol/kg i.v., 1 rabbit
[38] = Pancreas, 15 min after 0.01 mmol/kg i.v., rabbits
[39] = Pancreas, 15 min after 0.03 mmol/kg i.v., rabbits
[40] = Pancreas, 15 min after 0.08 mmol/kg i.v., rabbits
[41] = Pancreas, 15 min after 0.10 mmol/kg i.v., 1 rabbit
[42] = Renal Cortex, 15 min after 0.01 mmol/kg i.v., rabbits
[43] = Renal Cortex, 15 min after 0.03 mmol/kg i.v., rabbits
[44] = Renal Cortex, 15 min after 0.08 mmol/kg i.v., rabbits
[45] = Renal Cortex, 15 min after 0.10 mmol/kg i.v., 1 rabbit
[46] = Renal Medulla, 15 min after 0.01 mmol/kg i.v., rabbits
[47] = Renal Medulla, 15 min after 0.03 mmol/kg i.v., rabbits
[48] = Renal Medulla, 15 min after 0.08 mmol/kg i.v., rabbits
[49] = Renal Medulla, 15 min after 0.10 mmol/kg i.v., 1 rabbit
[50] = Skeletal Muscle, 15 min after 0.01 mmol/kg i.v., rabbits
[51] = Skeletal Muscle, 15 min after 0.03 mmol/kg i.v., rabbits
[52] = Skeletal Muscle, 15 min after 0.08 mmol/kg i.v., rabbits
[53] = Skeletal Muscle, 15 min after 0.10 mmol/kg i.v., 1 rabbit
[54] = Small Intestine, 15 min after 0.01 mmol/kg i.v., rabbits
[55] = Small Intestine, 15 min after 0.03 mmol/kg i.v., rabbits
[56] = Small Intestine, 15 min after 0.08 mmol/kg i.v., rabbits
[57] = Small Intestine, 15 min after 0.10 mmol/kg i.v., 1 rabbit
[58] = Small Intestine, rabbits, 15 min
[59] = Spleen, 15 min after 0.01 mmol/kg i.v., rabbits
[60] = Spleen, 15 min after 0.03 mmol/kg i.v., rabbits
[61] = Spleen, 15 min after 0.08 mmol/kg i.v., rabbits
[62] = Spleen, 15 min after 0.10 mmol/kg i.v., 1 rabbit
[63] = Stomach, 15 min after 0.01 mmol/kg i.v., rabbits
[64] = Stomach, 15 min after 0.03 mmol/kg i.v., rabbits
[65] = Stomach, 15 min after 0.08 mmol/kg i.v., rabbits
[66] = Stomach, 15 min after 0.10 mmol/kg i.v., 1 rabbit

Cc1cccc(C)c1NC(=O)CN(CC(=O)[O-])CC(=O)O.Cc1cccc(C)c1NC(=O)CN(CC(=O)[O-])CC(=O)O.O.O.O.[Mn+2] [Example 2]
effect on tissue T1 relaxation times [1]: dose-related decrease
effect on tissue T2 relaxation times [1]: minimally affected
T1 relaxation time [2]: 380 ms
T2 relaxation time [2]: 84 ms
T1 relaxation time [3]: 312 ms
T2 relaxation time [3]: 68 ms
T1 relaxation time [4]: 173 ms
T2 relaxation time [4]: 60 ms
T1 relaxation time [5]: 159 ms
T2 relaxation time [5]: 61 ms
Approximate ED50, intravenous dose to reduce tissue T1 by 50% (Bladder, rabbits, 15 min): 0.060 mmol/kg
Approximate ED50, intravenous dose to reduce tissue T2 by 50% (Bladder, rabbits, 15 min): 0.51 mmol/kg
T1 relaxation time [6]: 554 ms
T2 relaxation time [6]: 161 ms
T1 relaxation time [7]: 192 ms
T2 relaxation time [7]: 110 ms
T1 relaxation time [8]: 70 ms
T2 relaxation time [8]: 56 ms
T1 relaxation time [9]: 64 ms
T2 relaxation time [9]: 55 ms
T1 relaxation time [10]: 604 ms
T2 relaxation time [10]: 165 ms
T1 relaxation time [11]: 283 ms
T2 relaxation time [11]: 119 ms
T1 relaxation time [12]: 96 ms
T2 relaxation time [12]: 72 ms
T1 relaxation time [13]: 398 ms
T2 relaxation time [13]: 179 ms
T1 relaxation time [14]: 639 ms
T2 relaxation time [14]: 171 ms
T1 relaxation time [15]: 368 ms
T2 relaxation time [15]: 141 ms
T1 relaxation time [16]: 115 ms
T2 relaxation time [16]: 82 ms
T1 relaxation time [17]: 148 ms
T2 relaxation time [17]: 129 ms
T1 relaxation time [18]: 136 ms
T2 relaxation time [18]: 122 ms
T1 relaxation time [19]: 125 ms
T2 relaxation time [19]: 122 ms
T1 relaxation time [20]: 122 ms
T2 relaxation time [20]: 89 ms
Approximate ED50, intravenous dose to reduce tissue T1 by 50% (Fat, rabbits, 15 min): 11.94 mmol/kg
T1 relaxation time [21]: 370 ms
T2 relaxation time [21]: 64 ms
T1 relaxation time [22]: 222 ms
T2 relaxation time [22]: 56 ms
T1 relaxation time [23]: 104 ms
T2 relaxation time [23]: 43 ms
T1 relaxation time [24]: 84 ms
T2 relaxation time [24]: 39 ms
Approximate ED50, intravenous dose to reduce tissue T1 by 50% (Heart, rabbits, 15 min): 0.037 mmol/kg
Approximate ED50, intravenous dose to reduce tissue T2 by 50% (Heart, rabbits, 15 min): 0.38 mmol/kg
T1 relaxation time [25]: 245 ms
T2 relaxation time [25]: 65 ms
T1 relaxation time [26]: 155 ms
T2 relaxation time [26]: 52 ms
T1 relaxation time [27]: 123 ms
T2 relaxation time [27]: 43 ms
T1 relaxation time [28]: 166 ms
T2 relaxation time [28]: 53 ms
Approximate ED50, intravenous dose to reduce tissue T1 by 50% [29]: 0.050 mmol/kg
Approximate ED50, intravenous dose to reduce tissue T2 by 50% [29]: 0.19 mmol/kg
T1 relaxation time [30]: 92 ms
T2 relaxation time [30]: 41 ms
T1 relaxation time [31]: 49 ms
T2 relaxation time [31]: 25 ms
T1 relaxation time [32]: 28 ms
T2 relaxation time [32]: 18 ms
T1 relaxation time [33]: 143 ms
T2 relaxation time [33]: 87 ms
Approximate ED50, intravenous dose to reduce tissue T2 by 50% (Liver, rabbits, 15 min): 0.04 mmol/kg
Approximate ED50, intravenous dose to reduce tissue T1 by 50% (Liver, rabbits, 15 min, listed as Dihydrogen Bis(N-[N′-(2,6-dimethylphenyl)carbamoylmethyl]iminodiaceto)manganese(, Trihydrate)): 0.0067 mmol/kg
Approximate ED50, intravenous dose to reduce tissue T1 by 50% (Liver, rabbits, 15 min, listed as dihydrogen bis(N-[N′-(2,6-dimethylphenyl)carbamoylmethyl]-iminodiaceto)manganese, Trihydrate): less than 0.01 mmol/kg
T1 relaxation time [34]: 464 ms
T2 relaxation time [34]: 91 ms
T1 relaxation time [35]: 352 ms
T2 relaxation time [35]: 100 ms
T1 relaxation time [36]: 222 ms
T2 relaxation time [36]: 67 ms
T1 relaxation time [37]: 144 ms
T2 relaxation time [37]: 62 ms
Approximate ED50, intravenous dose to reduce tissue T1 by 50% (Lung, rabbits, 15 min): 0.075 mmol/kg
Approximate ED50, intravenous dose to reduce tissue T2 by 50% (Lung, rabbits, 15 min): 0.15 mmol/kg
T1 relaxation time [38]: 225 ms
T2 relaxation time [38]: 66 ms
T1 relaxation time [39]: 104 ms
T2 relaxation time [39]: 118 ms
T1 relaxation time [40]: 101 ms
T2 relaxation time [40]: 70 ms
T1 relaxation time [41]: 149 ms
T2 relaxation time [41]: 69 ms
Approximate ED50, intravenous dose to reduce tissue T1 by 50% (Pancreas, rabbits, 15 min): 0.064 mmol/kg
T1 relaxation time [42]: 236 ms
T2 relaxation time [42]: 77 ms
T1 relaxation time [43]: 164 ms
T2 relaxation time [43]: 63 ms
T1 relaxation time [44]: 77 ms
T2 relaxation time [44]: 42 ms
T1 relaxation time [45]: 71 ms
T2 relaxation time [45]: 37 ms
T1 relaxation time [46]: 435 ms
T2 relaxation time [46]: 122 ms
T1 relaxation time [47]: 218 ms
T2 relaxation time [47]: 95 ms
T1 relaxation time [48]: 124 ms
T2 relaxation time [48]: 74 ms
T1 relaxation time [49]: 35 ms
T2 relaxation time [49]: 21 ms
Approximate ED50, intravenous dose to reduce tissue T1 by 50% (Renal cortex, rabbits, 15 min): 0.041 mmol/kg
Approximate ED50, intravenous dose to reduce tissue T2 by 50% (Renal cortex, rabbits, 15 min): 0.14 mmol/kg
Approximate ED50, intravenous dose to reduce tissue T1 by 50% (Renal medulla, rabbits, 15 min): 0.030 mmol/kg
Approximate ED50, intravenous dose to reduce tissue T2 by 50% (Renal medulla, rabbits, 15 min): 0.90 mmol/kg
T1 relaxation time [50]: 364 ms
T2 relaxation time [50]: 35 ms
T1 relaxation time [51]: 304 ms
T2 relaxation time [51]: 38 ms
T1 relaxation time [52]: 255 ms
T2 relaxation time [52]: 39 ms
T1 relaxation time [53]: 205 ms
T2 relaxation time [53]: 38 ms
Approximate ED50, intravenous dose to reduce tissue T1 by 50% (Skeletal muscle, rabbits, 15 min): 0.35 mmol/kg
T1 relaxation time [54]: 219 ms
T2 relaxation time [54]: 73 ms
T1 relaxation time [55]: 150 ms
T2 relaxation time [55]: 60 ms
T1 relaxation time [56]: 130 ms
T2 relaxation time [56]: 50 ms
T1 relaxation time [57]: 141 ms
T2 relaxation time [57]: 45 ms
Approximate ED50, intravenous dose to reduce tissue T1 by 50% [58]: 0.051 mmol/kg
Approximate ED50, intravenous dose to reduce tissue T2 by 50% [58]: 0.27 mmol/kg
T1 relaxation time [59]: 346 ms
T2 relaxation time [59]: 73 ms
T1 relaxation time [60]: 260 ms
T2 relaxation time [60]: 70 ms
T1 relaxation time [61]: 195 ms
T2 relaxation time [61]: 65 ms
T1 relaxation time [62]: 202 ms
T2 relaxation time [62]: 71 ms
Approximate ED50, intravenous dose to reduce tissue T1 by 50% (Spleen, rabbits, 15 min): 0.085 mmol/kg
T1 relaxation time [63]: 287 ms
T2 relaxation time [63]: 56 ms
T1 relaxation time [64]: 199 ms
T2 relaxation time [64]: 53 ms
T1 relaxation time [65]: 122 ms
T2 relaxation time [65]: 43 ms
T1 relaxation time [66]: 121 ms
T2 relaxation time [66]: 47 ms
Approximate ED50, intravenous dose to reduce tissue T1 by 50% (Stomach, rabbits, 15 min): 0.068 mmol/kg
Approximate ED50, intravenous dose to reduce tissue T2 by 50% (Stomach, rabbits, 15 min): 0.93 mmol/kg
effect on hepatic and biliary T1 relaxation times (listed as dihydrogen bis(N-[N′-(2,6-dimethylphenyl)carbamoylmethyl]-iminodiaceto)manganese, Trihydrate): dramatically reduced
effect on hepatic and biliary T1 relaxation times (listed as dihydrogen bis(N-[N′-(2,6-dimethylphenyl)carbamoylmethyl]iminodiaceto)-manganese, Trihydrate): dramatically reduces hepatic and biliary T1 relaxation times

From US6797255B1, “Methods and compositions for enhancing magnetic resonance imaging” (Mallinckrodt Inc., priority 1985, dated 2004)
